{"source": "patent US20060079461A1", "about": "“Treatment of multiple myeloma by inhibition of p38 MAP kinase” (Scios, Inc., priority 2003, published 2006)", "key": {"VEGF": {"system": "VEGF", "test": "VEGF secretion from MM contact-activated BMSC", "type": "cell-based, human", "source_text": "(§1) p38 MAPK controls secretion of these factors in-vitro in systems representing the BM milieu."}, "PGE2": {"system": "PGE2", "test": "PGE2 levels in LPS-induced human whole blood", "type": "cell-based"}, "[1]": {"system": "human myeloma (RPMI8266) tumor", "test": "Beige-nude-xid mouse xenograft plasmacytoma model", "type": "in vivo", "source_text": "Human-multiple myeloma (MM) is an incurable neoplasm of terminally differentiated B cells and MM disease progression is affected by immunoregulatory elements such as IL-6 and other cytokines. […]"}, "IL-11 [2]": {"system": "IL-11", "test": "IL-1 and TGFβ induction of IL-11 in BMSC cultures", "type": "cell-based, human", "settings": "100 nM", "source_text": "as §1"}, "TNF-α": {"system": "TNF-α", "test": "LPS-induced TNF-α secretion in whole blood", "type": "cell-based, human", "procedure": "Other in vitro assays can assess the production of TNF-α as a correlation to p38 MAP kinase activity. One such example is a Human Whole Blood Assay. In this assay, venous blood is collected from, e.g., healthy male volunteers into a heparinized syringe and is used within 2 hours of collection. Test compounds are dissolved in 100% DMSO and 1 μl aliquots of drug concentrations ranging from 0 to 1 mM are dispensed into quadruplicate wells of a 24-well microtiter plate (Nunclon Delta SI, Applied Scientific Co., San Francisco, Calif.). Whole blood is added at a volume of 1 ml/well and the mixture is incubated for 15 minutes with constant shaking (Titer Plate Shaker, Lab-Line Instruments, Inc., Melrose Park, Ill.) at a humidified atmosphere of 5% CO2 at 37° C. Whole blood is cultured either undiluted or at a final dilution of 1:10 with RPMI 1640 (Gibco 31800+NaHCO3, Life Technologies, Rockville, Md. and Scios, Inc., Sunnyvale, Calif.). At the end of the incubation period, 10 μl of LPS (E. coli 01111:B4, Sigma Chemical Co., St. Louis, Mo.) is added to each well to a final concentration of 1 or 0.1 μg/ml for undiluted or 1:10 diluted whole blood, respectively. The incubation is continued for an additional 2 hours. The reaction is stopped by placing the microtiter plates in an ice bath, and plasma or cell-free supernates are collected by centrifugation at 3000 rpm for 10 minutes at 4° C. […]"}, "MAPKAPK-2": {"system": "MAPKAPK-2", "test": "MAPKAPK-2 in vitro kinase assay with GST-Hsp27 substrate", "type": "cell-based, human", "procedure": "(§2) Total cell lysates are immunoprecipitated with anti-MAPKAPK-2 antibody and subjected to in vitro kinase assays using purified GST-Hsp27 as substrate. To examine Hsp27 phosphorylation in MM and transformed B cells, U266, IM9 and RPMI8226 cells are incubated either with DMSO or with 0.5 μM of a p38 MAPK inhibitor and cell lysates are immunoblotted with antibodies to phospho-Hsp27 (Ser 82) and Hsp27."}, "HSP-27 [3]": {"system": "HSP-27", "test": "HSP-27 phosphorylation in BMSC", "type": "cell-based, human"}, "multiple myeloma": {"system": "multiple myeloma", "test": "Treatment of a patient with multiple myeloma", "type": "in vivo, human", "source_text": "A patient is diagnosed with multiple myeloma. The patient presents with MM cells with rapid growth rates, which displace osteoblasts, and disrupting the balance of bone creation and destruction. A number of MM-related cytokines, such as IL-6, VEGF, IL-11, and PGE-2 are detectable. […] MM cell growth is inhibited and MM-related cytokine product is reduced."}, "IL-11 [4]": {"system": "IL-11", "test": "IL-1 and TGFβ induction of IL-11 in MM/BMSC cultures", "type": "cell-based, human", "settings": "100 nM", "source_text": "as §1"}, "[5]": {"system": "MM cell lines (U266B, RPMI, ARH-77, and IM9)", "test": "MM cell proliferation", "type": "cell-based, human", "settings": "72-hour exposure; each of four MM cell lines (U266B, RPMI, ARH-77, IM9)"}, "IL-1β": {"system": "IL-1β", "test": "LPS-induced IL-1β release in human whole blood", "type": "cell-based", "settings": "human whole blood (undiluted)", "source_text": "IL-1β illustrates the importance of amplification loops in myeloma-induced cytokine stimulation. IL-1, plays a well-documented role in the induction of multiple cytokines in a “cytokine network” of feedback loops, including strong induction of IL-6. The ability of IL-1 to increase mRNA expression and induce secretion of the MM-relevant cytokines from MM/BMSC cultures is evidence of this role."}, "Hsp27": {"system": "Hsp27", "test": "Total Hsp27 levels in MM cells", "type": "cell-based, human", "settings": "even after prolonged incubation", "procedure": "as §2"}, "purified COX-2 enzyme": {"target": "T1, purified COX-2 enzyme (Homo sapiens, UniProt P35354)", "T1 sequence (P35354 18-604)": "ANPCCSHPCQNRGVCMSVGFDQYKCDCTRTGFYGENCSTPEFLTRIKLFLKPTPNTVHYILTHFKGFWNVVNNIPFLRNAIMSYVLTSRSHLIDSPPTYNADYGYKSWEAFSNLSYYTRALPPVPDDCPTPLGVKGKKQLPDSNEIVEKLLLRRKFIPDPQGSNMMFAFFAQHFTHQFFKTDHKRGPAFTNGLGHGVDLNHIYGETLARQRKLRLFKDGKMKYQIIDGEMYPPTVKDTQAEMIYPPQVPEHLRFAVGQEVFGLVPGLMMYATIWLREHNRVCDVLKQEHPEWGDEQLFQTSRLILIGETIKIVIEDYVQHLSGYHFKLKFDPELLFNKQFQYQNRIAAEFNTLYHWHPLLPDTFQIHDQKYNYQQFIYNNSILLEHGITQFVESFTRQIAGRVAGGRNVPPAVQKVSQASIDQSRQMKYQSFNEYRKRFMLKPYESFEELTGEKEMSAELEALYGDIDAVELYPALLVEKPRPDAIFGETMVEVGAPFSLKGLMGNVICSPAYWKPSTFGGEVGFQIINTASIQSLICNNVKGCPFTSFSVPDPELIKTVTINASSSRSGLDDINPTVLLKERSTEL", "test": "Purified COX-2 enzyme activity", "type": "biochemical"}, "HSP-27 [6]": {"system": "HSP-27", "test": "HSP-27 phosphorylation in MM cells (p38 MAPK activity)", "type": "cell-based, human", "procedure": "as §2\nIn additional experiments, the p38 MAPK inhibitors are tested for their ability to inhibit Hsp27 phosphorylation. U266, IM9 and RPMI8226 cells are incubated with 0.5 μM of the p38 MAPK inhibitor for 1 hour and Hsp27 proteins are immunoprecipitated with agarose-conjugated Hsp27 antibody, followed by immunoblotting with anti-phospho Hsp27 (Ser 78) antibody.\nSpecific antibodies to p38 MAP kinase are from Santa Cruz Biotechnology (Santa Cruz, Calif.). Antibodies to phospho-p38 MAP kinase (T180/Y182) and phospho-Hsp27 (S82) are from Cell Signaling (Beverly, Mass.). Antibodies to Hsp27 and phospho-Hsp27 (S78) are from Upstate Biotechnology (Lake Placid, N.Y.). Anti-MAPKAPK-2 is from StressGen (San Diego, Calif.) while anti-GAPDH is from Biogenesis Ltd. (Poole, UK)."}, "MKK3 and MKK6": {"system": "MKK3 and MKK6", "test": "Activation of p38 MAPK by upstream kinases"}, "BMSC": {"system": "BMSC", "test": "BMSC viability, MTS assay", "type": "cell-based, human", "settings": "tested up to 50-fold excess of active concentration", "procedure": "Neither p38 MAPK inhibition nor high concentrations of p38 MAPK inhibitor (tested up to 50-fold excess of active concentration) affected BMSC viability (FIG. 4). Viability was measured using a standard enzymatic assay of respiratory activity, MTS (3-(4,5-dimethylthiazol-2-yl)-5-(3-carboxymethoxyphenyl)-2-(4-sulfophenyl)-2H-tetrazolium). Results obtained with the p38 MAPK inhibitor are in agreement with published results using a different p38α MAPK inhibitor."}, "MM cells": {"system": "MM cells", "test": "MM cell viability and proliferation with SN-50 co-exposure", "type": "cell-based", "settings": "co-exposure with SN-50", "source_text": "SN-50 is a cell-permeable specific inhibitor of NF-kappaB nuclear translocation and activity. Nuclear factor-kappaB has been reported to confer significant survival potential in a variety of tumors, including MM cells."}, "COX-2 mRNA": {"system": "COX-2 mRNA", "test": "LPS-induced COX-2 mRNA", "type": "cell-based"}, "[7]": {"settings": "in combination with an apoptosis promoting agent"}}}
{"smiles": "COC(=O)C(=O)c1cn(C(=O)c2ccc(Cl)cc2)c2cc(OC)c(C(=O)N3CCC(Cc4ccccc4)CC3)cc12", "note": "[Compound 4]", "values": [{"measurement": "VEGF secretion", "setting": "VEGF", "result": "inhibited"}]}
{"smiles": "C[C@@H]1CN(Cc2ccc(F)cc2)[C@@H](C)CN1C(=O)c1cc2c(C(=O)C(=O)N(C)C)cn(C)c2cc1Cl", "note": "[Compound 57]", "values": [{"measurement": "PGE2 levels", "setting": "PGE2", "result": "reduced"}, {"measurement": "tumor volume, histological assessment", "setting": "[1]; at the end of dosing, versus vehicle", "result": "significant reduction"}, {"measurement": "number of neoformed microvessels", "setting": "[1]; histological assessment at the end of dosing", "result": "significant reduction"}, {"measurement": "HSP27 expression in tumor cells", "setting": "[1]; mouse, in vivo", "result": "significantly reduces"}, {"measurement": "p38 expression in tumor cells", "setting": "[1]; mouse, in vivo", "result": "significantly reduces"}, {"measurement": "tumor volume", "setting": "[1]; palpable tumors (~200 mm^3), 90 mg/kg/bid oral gavage, 21 days", "result": "significantly reduces"}, {"measurement": "tumor volume", "setting": "[1]; treatment initiated at pronounced tumor size (~800 mm^3)", "result": "significant reduction"}, {"measurement": "IL-1 and TGFβ induction of IL-11 at the mRNA and protein levels", "setting": "IL-11 [2]", "result": "blocked"}, {"measurement": "LPS-induced TNF-α secretion", "setting": "TNF-α", "result": "dose-dependent reduction"}, {"measurement": "activity of downstream substrate MAPKAPK-2", "setting": "MAPKAPK-2", "result": "suppresses"}, {"measurement": "phosphorylation of HSP-27", "setting": "HSP-27 [3]", "result": "blocked phosphorylation of HSP-27 completely"}, {"measurement": "MM cell growth", "setting": "multiple myeloma; [7]", "result": "inhibited"}, {"measurement": "MM-related cytokine product", "setting": "multiple myeloma; [7]", "result": "reduced"}, {"measurement": "MM cell growth", "setting": "multiple myeloma; therapeutic amount, alone", "result": "inhibited"}, {"measurement": "MM-related cytokine product", "setting": "multiple myeloma; therapeutic amount, alone", "result": "reduced"}, {"measurement": "IL-1 and TGFβ induction of IL-11 at the mRNA and protein levels", "setting": "IL-11 [4]", "result": "blocked"}, {"measurement": "reduction in proliferation", "setting": "[5]", "result": "about 20%"}, {"measurement": "LPS-induced IL-1β release", "setting": "IL-1β", "result": "dose-dependent reduction"}, {"measurement": "total Hsp27 levels", "setting": "Hsp27", "result": "does not affect"}, {"measurement": "activity of the purified COX-2 enzyme", "setting": "purified COX-2 enzyme", "result": "did not directly inhibit"}, {"measurement": "phosphorylation of HSP-27", "setting": "HSP-27 [6]; MM cells", "result": "blocked phosphorylation of HSP-27 completely"}, {"measurement": "Hsp27 phosphorylation", "setting": "HSP-27 [6]; U266, IM9, RPMI8226, cell lysates or immunoprecipitation assays, 0.5 μM", "result": "inhibits"}, {"measurement": "p38 MAPK activity", "setting": "HSP-27 [6]; immunodetection of p38 MAPK kinase target HSP-27", "result": "fully suppressed"}, {"measurement": "direct activation of the p38 MAPK enzyme or activity of kinases upstream of p38 MAPK", "setting": "MKK3 and MKK6", "result": "not the direct activation of the p38 MAPK enzyme or the activity of kinases upstream of p38 MAPK"}, {"measurement": "BMSC viability", "setting": "BMSC", "result": "Neither p38α MAPK inhibition nor high concentrations of Compound 57 (tested up to 50-fold excess of active concentration) affected BMSC viability"}, {"measurement": "reduction of MM cell viability and proliferation caused by SN-50-induced NFκB inhibition", "setting": "MM cells", "result": "enhances the reduction of MM cell viability and proliferation"}, {"measurement": "LPS-induced COX-2 mRNA", "setting": "COX-2 mRNA", "result": "inhibited"}]}
